Laboratory results published in US12685312B2, “Sulfonamide apyrase inhibitors” (Texas Crop Science, Inc., priority 2022, dated 2026).

Tested on: apyrase
Assay: Screen for apyrase inhibitors (Method 1, in vitro phosphate-release absorbance assay)
Format: biochemical
Conditions: inhibitor conc at 1 mM stock, 1 hr room temperature, absorbance 630 nm; rounded average of two assay results
Outline: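 Phosphate-release colorimetric assay (Windsor method) in 60 mM Hepes, 3 mM MgCl2, 3 mM CaCl2, 3 mM ATP, pH 6.5, with compound or DMSO control added. Released phosphate developed with ammonium molybdate and ascorbic acid/TCA, then stopped with citrate/acetic acid.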

| SMILES | % Inhibition of Apyrase |
| --- | --- |
| COc1ccccc1N(C)S(=O)(=O)c1ccc(C(=O)N2CCCSc3ccccc32)cc1 [I-878, N-(2-methoxyphenyl)-N-methyl-4-(2,3,4,5-tetrahydrobenzo[b][1,4]thiazepine-5-carbonyl)benzenesulfonamide] | 54% |
| Cc1ccccc1NS(=O)(=O)c1ccc(C(=O)N2c3ccccc3CC2C)cc1 (centres unmarked) [I-879, 4-(2-methylindoline-1-carbonyl)-N-(o-tolyl)benzenesulfonamide] | 53% |
| COc1ccccc1NC(=O)c1ccc(S(=O)(=O)N(C)c2ccccc2OC)cc1 [I-880, N-(2-methoxyphenyl)-4-(N-(2-methoxyphenyl)-N-methylsulfamoyl)benzamide] | 53% |
| CC(=O)c1cc2c(cc1NC(=O)c1ccc(S(=O)(=O)N3CCCc4ccccc43)cc1)OCO2 [I-881, N-(6-acetylbenzo[d][1,3]dioxol-5-yl)-4-((3,4-dihydroquinolin-1(2H)-yl)sulfonyl)benzamide] | 53% |
| COc1ccc(NC(=O)c2cccc(S(=O)(=O)Nc3ccc4c(c3)OCO4)c2)cc1Cl [I-882, 3-(N-(benzo[d][1,3]dioxol-5-yl)sulfamoyl)-N-(3-chloro-4-methoxyphenyl)benzamide] | 53% |
| COc1ccc2c(c1)CCCN2C(=O)c1ccc(S(=O)(=O)Nc2ccccc2F)cc1 [I-883, N-(2-fluorophenyl)-4-(6-methoxy-1,2,3,4-tetrahydroquinoline-1-carbonyl)benzenesulfonamide] | 51% |
| Cc1ccc(NS(=O)(=O)c2ccc(C(=O)N3CCc4cc(S(N)(=O)=O)ccc43)cc2)cc1 [I-884, 1-(4-(N-(p-tolyl)sulfamoyl)benzoyl)indoline-5-sulfonamide] | 48% |
| CCN(C(=O)c1ccc(S(=O)(=O)N2CCCc3ccccc32)cc1)c1ccccc1 [I-885, 4-((3,4-dihydroquinolin-1(2H)-yl)sulfonyl)-N-ethyl-N-phenylbenzamide] | 47% |
| O=C(Nc1ccc(NS(=O)(=O)c2ccc3c(c2)OCCO3)cc1)c1cccc(N2CCCC2=O)c1 [I-886, N-(4-((2,3-dihydrobenzo[b][1,4]dioxine)-6-sulfonamido)phenyl)-3-(2-oxopyrrolidin-1-yl)benzamide] | 43% |
| COc1ccc(NS(=O)(=O)c2ccc(C(=O)Nc3ccc4c(c3)OCCO4)cc2)cc1 [I-887, N-(2,3-dihydrobenzo[b][1,4]dioxin-6-yl)-4-(N-(4-methoxyphenyl)sulfamoyl)benzamide] | 43% |
| Cc1ccc(NS(=O)(=O)c2ccc(C(=O)Nc3ccc(C)c(C)c3)cc2)cc1 [I-888, N-(3,4-dimethylphenyl)-4-(N-(p-tolyl)sulfamoyl)benzamide] | 43% |
| Cc1nc2ccc(NC(=O)c3ccc(S(=O)(=O)N4CCCc5ccccc54)cc3)cc2s1 [I-889, 4-((3,4-dihydroquinolin-1(2H)-yl)sulfonyl)-N-(2-methylbenzo[d]thiazol-6-yl)benzamide] | 39% |
| CN(c1ccccc1)S(=O)(=O)c1ccc(C(=O)N2CC(=O)Nc3ccccc32)cc1 [I-890, N-methyl-4-(3-oxo-1,2,3,4-tetrahydroquinoxaline-1-carbonyl)-N-phenylbenzenesulfonamide] | 32% |
| Cc1ccc(NS(=O)(=O)c2ccc(C(=O)N3CC4CCCN4Cc4ccccc43)cc2)cc1 (centres unmarked) [I-891, 4-(2,3,5,10,11,11a-hexahydro-1H-benzo[e]pyrrolo[1,2-a][1,4]diazepine-10-carbonyl)-N-(p-tolyl)benzenesulfonamide] | 30% |
| COc1ccc([N+](=O)[O-])cc1NS(=O)(=O)c1ccc(C(=O)N2CCc3ccccc32)cc1 [I-892, 4-(indoline-1-carbonyl)-N-(2-methoxy-5-nitrophenyl)benzenesulfonamide] | 29% |
| Cc1ccccc1NS(=O)(=O)c1ccc(C(=O)Nc2ccccc2C(=O)NC2CC2)cc1 [I-893, N-cyclopropyl-2-(4-(N-(o-tolyl)sulfamoyl)benzamido)benzamide] | 20% |
| Cc1cccc(NS(=O)(=O)c2ccc(C(=O)Nc3cccc(C(=O)N(C)C)c3)cc2)c1C [I-894, 3-(4-(N-(2,3-dimethylphenyl)sulfamoyl)benzamido)-N,N-dimethylbenzamide] | 18% |
| O=C(Nc1ccc(N2CCOCC2)cc1)c1ccc(S(=O)(=O)N2CCCc3ccccc32)cc1 [I-895, 4-((3,4-dihydroquinolin-1(2H)-yl)sulfonyl)-N-(4-morpholinophenyl)benzamide] | 10% |
| COc1ccccc1NC(=O)c1ccc(NS(=O)(=O)c2ccc3c(c2)OCCO3)cc1 [I-898, 4-((2,3-dihydrobenzo[b][1,4]dioxine)-6-sulfonamido)-N-(2-methoxyphenyl)benzamide] | 65% |
| Cc1ccc(NC(=O)c2ccc(NS(=O)(=O)c3ccc(F)c(F)c3)cc2)cc1 [I-899, 4-((3,4-difluorophenyl)sulfonamido)-N-(p-tolyl)benzamide] | 65% |
| CCOc1ccc(NC(=O)c2ccc(NS(=O)(=O)c3cccc(C(F)(F)F)c3)cc2)cc1 [I-900, N-(4-ethoxyphenyl)-4-((3-(trifluoromethyl)phenyl)sulfonamido) benzamide] | 65% |

| SMILES | % Inhibition of Apyrase |
| --- | --- |
| O=C(Nc1ccc(SC(F)F)cc1)c1ccc(NS(=O)(=O)c2cccc([N+](=O)[O-])c2)cc1 [I-901, N-(4-((difluoromethyl)thio)phenyl)-4-((3-nitrophenyl)sulfonamido)benzamide] | 64% |
| O=C(Nc1ccc(F)cc1)c1ccc(NS(=O)(=O)c2ccc(Cl)c([N+](=O)[O-])c2)cc1 [I-902, 4-((4-chloro-3-nitrophenyl)sulfonamido)-N-(4-fluorophenyl)benzamide] | 64% |
| COc1cccc(S(=O)(=O)Nc2ccc(C(=O)Nc3ccc4c(c3)OCCO4)cc2)c1 [I-903, N-(2,3-dihydrobenzo[b][1,4]dioxin-6-yl)-4-((3-methoxyphenyl)sulfonamido)benzamide] | 62% |
| O=C(Nc1cccc(F)c1)c1ccc(NS(=O)(=O)c2ccccc2)cc1 [I-904, N-(3-fluorophenyl)-4-(phenylsulfonamido)benzamide] | 62% |
| Cc1cccc(NC(=O)c2ccc(NS(=O)(=O)c3ccc(F)c(Cl)c3)cc2)c1 [I-905, 4-((3-chloro-4-fluorophenyl)sulfonamido)-N-(m-tolyl)benzamide] | 61% |
| O=C(Nc1cccc(Cl)c1)c1ccc(NS(=O)(=O)c2ccc(F)c(F)c2)cc1 [I-906, N-(3-chlorophenyl)-4-((3,4-difluorophenyl)sulfonamido)benzamide] | 61% |
| Cc1ccc(C)c(S(=O)(=O)Nc2ccc(C(=O)Nc3ccccc3F)cc2)c1 [I-907, 4-((2,5-dimethylphenyl)sulfonamido)-N-(2-fluorophenyl)benzamide] | 61% |
| O=C(Nc1ccc2c(c1)OC1(CCCC1)O2)c1ccc(NS(=O)(=O)c2ccccc2)cc1 [I-908, 4-(phenylsulfonamido)-N-(spiro[benzo[d][1,3]dioxole-2,1′-cyclopentan]-5-yl)benzamide] | 61% |
| Cc1cc(S(=O)(=O)Nc2ccc(C(=O)N3c4ccccc4CC3C)cc2)ccc1F (centres unmarked) [I-909, 4-fluoro-3-methyl-N-(4-(2-methylindoline-1-carbonyl)phenyl)benzenesulfonamide] | 60% |
| O=C(Nc1ccc2c(c1)CCC2)c1ccc(NS(=O)(=O)c2ccc3c(c2)OCCO3)cc1 [I-910, N-(2,3-dihydro-1H-inden-5-yl)-4-((2,3-dihydrobenzo[b][1,4]dioxine)-6-sulfonamido)benzamide] | 60% |
| CC1Cc2ccccc2N1C(=O)c1ccc(NS(=O)(=O)c2ccccc2)cc1 (centres unmarked) [I-911, N-(4-(2-methylindoline-1-carbonyl)phenyl)benzenesulfonamide] | 59% |
| O=C(c1ccc(NS(=O)(=O)c2ccc3c(c2)OCCO3)cc1)N1CCCc2ccccc21 [I-912, N-(4-(1,2,3,4-tetrahydroquinoline-1-carbonyl)phenyl)-2,3-dihydrobenzo[b][1,4]dioxine-6-sulfonamide] | 59% |
| Cc1cccc(NC(=O)c2ccc(NS(=O)(=O)c3ccc(Br)cc3)cc2)c1C [I-913, 4-((4-bromophenyl)sulfonamido)-N-(2,3-dimethylphenyl)benzamide] | 59% |
| CCOc1ccc(NC(=O)c2ccc(NS(=O)(=O)c3ccccc3)cc2)cc1 [I-914, N-(4-ethoxyphenyl)-4-(phenylsulfonamido)benzamide] | 59% |
| COc1ccccc1NC(=O)c1ccc(NS(=O)(=O)c2ccc(Cl)c(C(F)(F)F)c2)cc1 [I-915, 4-((4-chloro-3-(trifluoromethyl)phenyl)sulfonamido)-N-(2-methoxyphenyl)benzamide] | 59% |
| COc1cccc(S(=O)(=O)Nc2ccc(C(=O)Nc3cccc(C(F)(F)F)c3)cc2)c1 [I-916, 4-((3-methoxyphenyl)sulfonamido)-N-(3-(trifluoromethyl)phenyl)benzamide] | 58% |
| Cc1ccc(NC(=O)c2ccc(NS(=O)(=O)c3ccccc3)cc2)cc1C [I-917, N-(3,4-dimethylphenyl)-4-(phenylsulfonamido)benzamide] | 58% |
| Cc1ccc(NC(=O)c2ccc(NS(=O)(=O)c3ccc(F)cc3)cc2)cc1C [I-918, N-(3,4-dimethylphenyl)-4-((4-fluorophenyl)sulfonamido)benzamide] | 58% |
| COc1ccccc1NC(=O)c1ccc(NS(=O)(=O)c2cccc(C(F)(F)F)c2)cc1 [I-919, N-(2-methoxyphenyl)-4-((3-(trifluoromethyl)phenyl)sulfonamido) benzamide] | 58% |
| Cc1cc(S(=O)(=O)Nc2ccc(C(=O)Nc3ccc4c(c3)OCO4)cc2)ccc1F [I-920, N-(benzo[d][1,3]dioxol-5-yl)-4-((4-fluoro-3-methylphenyl)sulfonamido)benzamide] | 57% |
